Experimental data published in US8361999B2, “Methods of treating cholesterol gallstone disease with ezetimibe” (Pontificia Universidad Catolica de Chile, priority 2005, dated 2013).

Test system: C57BL/6J mice
Assay: Lithiasis of the gallbladder and cholesterol crystals in gallbladder bile, protocol #1 (14 days)
Type: in vivo, mouse
Conditions: for formation of cholesterol crystals and cholesterol gallstones: C57BL/6 mice on lithogenic diet plus ezetimibe
Excerpt: Experimental Animal Disease Models. Spontaneous cholelithiasis is extremely rare in experimental or wild animals, probably because they secrete low levels of cholesterol into the bile and have therefore non-saturated cholesterol bile. However, different animal models (rabbit, hamster, prairie dog, squirrel and mouse) develop cholelithiasis similar to the human disease on cholesterol rich plus bile salts (cholic acid) and sometimes triglycerides rich experimental diets. The mouse is the best characterized experimental model where the development of the disease is dependent of a diet known as “lithogenic” (1.25% cholesterol, 0.5% cholic acid, 15% fat). Under these conditions most of the available mouse strains develop cholesterol cholelithiasis in variable proportions and times (Paigen, 2002). It has been established that there are strains more susceptible or more resistant to develop cholelithiasis, which could be genetically determined. The mice strains C57L and C57BL/6 are particularly susceptible to develop cholelithiasis (80-100% of the animals develop the disease in 2-4 weeks on lithogenic diet) (Paigen, 2002; Bouchard et al., unpublished data communicated in www.jax.org/pub-cgi/phenome). Studies performed in these models during the last years have been vital in the better understanding of the disease and for the discovery of genes that are potentially relevant in generating susceptibility to the illness (Paigen, 2002). In this preclinical innovation work we use the mouse strain C57BL/6.
We used mice C57BL/6J susceptible to the development of cholelithiasis originally obtained from Jackson Corp (Bar Harbor, Me., USA) and the colonies were grown in our Laboratory of Gastroenterology, Facultad de Medicina, P. Universidad Católica de Chile. The experimental groups were fed a control chow diet low in cholesterol (<0.02% cholesterol, Prolab RMH3000, PMI Feeds Inc., St. Louis, Mo.) or a lithogenic diet (1.25% cholesterol, 0.5% cholic acid, 15% fat, TD90221, Harlan Teklad, Madison, Wis.) (Amigo et al. 2000). These mice were also treated with Ezetimibe (Zetia®, Merk/Schering Plough) or placebo. In protocol #1 Zetia® tablets were grinded in a porcelain mortar and dissolved in water to be administered to the mice in one daily dose (08 h) of 5 mg/Kg weight by gavage in a final volume of […]; the control groups were given the same volume of water by gavage without the drug. In protocol #2 Zetia® tablets were grinded in the same way described above, dissolved in 200 cc 100% ethanol (Merck) and added to the lithogenic diet previously grinded and dried for 48 h at room temperature. C57BL/6J mice received this lithogenic diet plus Zetia® in a estimated dose of 5-6 mg/kg/day during 30 days (the mice consume 4-5 gr of diet per day). […]

Structure (SMILES): O=C1[C@H](CC[C@H](O)c2ccc(F)cc2)[C@@H](c2ccc(O)cc2)N1c1ccc(F)cc1 [Ezetimibe, (−)-1-(4-fluorophenyl)-(3R)-[3-(4-fluorophenyl)-(.S)-hydroxypropyl]-(4S)-(4-hydroxyphenyl)-2-azetidinone]
- formation of cholesterol crystals and cholesterol gallstones: complete inhibition
- formation of cholesterol crystals and cholesterol gallstones (listed as ezetimibe): inhibited
- development of cholelithiasis or cholesterol crystals in the bile (control diet low in cholesterol plus Ezetimibe): did not develop cholelithiasis or cholesterol crystals
- mice that developed gallstones or cholesterol crystals in the gallbladder (lithogenic diet plus Ezetimibe 5 mg/kg/day by gavage, 100% in lithogenic diet plus water): none
